{"source": "patent US20140294942A1", "about": "“ANTIVIRAL PEPTIDES EFFECTIVE AGAINST HEPATITIS C VIRUS” (THE REGENTS OF THE UNIVERSITY OF CALIFORNIA, priority 2011, published 2014)", "key": {"Huh-7.5 cells": {"tested_on": "Huh-7.5 cells", "description": "(§1) Huh-7.5 cells were transfected with the indicated peptide construct and 48 hours later infected with the reporter virus for three hours. Cells were harvested 24 hours post infection, and Renilla activity was measured. All Renilla values were normalized to GFP transfection. […] Huh-7.5 cells were treated with the indicated concentrations of HCV4 or the arginine tag control peptide and immediately infected with the Renilla reporter virus for three hours. Cells were assayed 24 hours post infection for Renilla activity. ‘Percent protection’ refers to the percentage of decrease in Renilla levels compared with no peptide treatment.\nCell viability was determined using MTT Cell Proliferation assay (ATCC, 30-1010K).\n(§2) Two cysteine residues were added to each end to allow for disulfide bond formation and to achieve a conformation similar to the C34 hairpin. Also an arginine tag was added to the N-terminal cysteine to allow for efficient uptake by cells without any transfection reagent. Huh-7.5 cells were treated with concentrations of HCV4 peptide ranging from 100 μM to 10 pM in the HCVcc system and were immediately infected with the HCV Renilla reporter virus."}, "[1]": {"tested_on": "NS5A-augmented IRES-mediated translation", "test": "Bicistronic HCV IRES reporter assay (Firefly/Renilla luciferase)", "format": "cell-based, Hepatitis C virus", "details": "for effect of peptide treatment on NS5A-augmented IRES-mediated translation: cells treated with peptide and transfected with reporter construct and NS5A or GFP", "description": "FIG. 5A: Schematic of the bicistronic reporter construct used to measure IRESmediated translation. Firefly luciferase (FLuc) and Renilla luciferase (RLuc) are driven by HCV IRES and a 5′ cap, respectively. Each reporter has a stop codon to allow independent expression. Firefly to Renilla ratios are used to follow changes in levels of IRES-mediated translation. For all experiments, the IRES reporter, either NS5A or GFP, and a peptide construct (if indicated) were transfected into cells.\n293T cells were transfected with HCV IRES reporter plasmid; either pMSCV5AFLAG or pMSCVGFP; and pCCL-CMV-IRES-EGFP plasmid expressing one of the following peptides: C34, NS5A domain II peptide, NS5A domain III peptide, NS3 peptide, or one of the C34 mutagenesis peptides. All transfections were done using Fugene 6 (Roche, 11814443001). 48 hours post transfection, Renilla and Firefly luciferase activity was determined using Dual Luciferase Assay System (Promega, E1910).\nAfter identifying the C-terminal region of NS5A as the HSP70 binding site in vitro, we sought to determine whether this region has any functional significance. NS5A has been reported to increase IRES-mediated translation in a cell culture-based bicistronic reporter system (He et al. (2003) J. General Virol., 84: 535-543) (FIG. 5A). This reporter system consists of the Firefly luciferase open reading frame (ORF) driven by HCV IRES and Renilla luciferase ORF under the control of a 5′ cap (FIG. 5A). The ratio of Firefly to Renilla luciferase activity can be used to measure the levels of IRES-mediated translation. The C-terminal 34 amino acid peptide corresponding to amino acids 165-198 of NSSA domain I (hereafter referred to as C34) was tested for its effect on altering IRES-mediated translation. […]\nWe also assessed the impact of the HCV4 peptide on NS5A-augmented IRES-mediated translation. […]"}, "[2]": {"tested_on": "HCV Renilla reporter virus", "description": "as §1\npNRLFC was in vitro transcribed, and the purified RNA was electroporated into Huh-7.5 cells to generate infectious viral supernatant as previously described (Arumugaswami et al. (2008) PLoS Pathogens, 4: e1000182). Viral assays were done using the HCV reporter virus as described previously (Gonzalez et al. (2009) Hepatology50: 1756-1764).\nas §2"}, "HCV": {"tested_on": "HCV", "details": "previously shown (Gonzalez et al. 2009); cited from earlier work"}, "[3]": {"tested_on": "NS5A-augmented IRES-mediated translation", "details": "previously shown (Gonzalez et al. 2009); cited from earlier work"}, "replicon": {"tested_on": "replicon", "details": "reported in the literature, read-out: IC50 in Cell Culture; cited from earlier work"}, "polymerase": {"target": "polymerase (Hepatitis C virus genotype 1a, UniProt P27958)", "sequence (P27958 2421-3011)": "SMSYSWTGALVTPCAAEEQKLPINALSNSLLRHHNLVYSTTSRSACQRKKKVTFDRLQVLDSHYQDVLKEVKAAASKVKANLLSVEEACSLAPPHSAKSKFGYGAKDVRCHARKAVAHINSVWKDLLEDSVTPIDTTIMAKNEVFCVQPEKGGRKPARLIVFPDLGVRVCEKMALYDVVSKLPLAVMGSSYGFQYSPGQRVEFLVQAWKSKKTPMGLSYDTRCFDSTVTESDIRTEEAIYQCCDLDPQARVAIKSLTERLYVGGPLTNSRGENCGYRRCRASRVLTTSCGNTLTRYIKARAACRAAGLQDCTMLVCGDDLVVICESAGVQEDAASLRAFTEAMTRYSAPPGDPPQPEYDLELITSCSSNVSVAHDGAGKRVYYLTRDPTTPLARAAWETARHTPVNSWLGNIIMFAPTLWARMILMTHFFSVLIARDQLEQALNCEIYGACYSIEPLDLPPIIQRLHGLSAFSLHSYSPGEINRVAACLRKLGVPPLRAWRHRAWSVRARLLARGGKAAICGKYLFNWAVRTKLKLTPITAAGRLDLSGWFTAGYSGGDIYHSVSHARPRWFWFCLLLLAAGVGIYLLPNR", "details": "polymerase assay; reported in the literature; read-out: IC50 in in vitro Assays; cited from earlier work"}, "[4]": {"details": "primer extension; reported in the literature; read-out: IC50 in in vitro Assays; cited from earlier work"}, "protease": {"target": "protease (Hepatitis C virus genotype 1a, UniProt P27958)", "sequence (P27958 1027-1657 limits assumed)": "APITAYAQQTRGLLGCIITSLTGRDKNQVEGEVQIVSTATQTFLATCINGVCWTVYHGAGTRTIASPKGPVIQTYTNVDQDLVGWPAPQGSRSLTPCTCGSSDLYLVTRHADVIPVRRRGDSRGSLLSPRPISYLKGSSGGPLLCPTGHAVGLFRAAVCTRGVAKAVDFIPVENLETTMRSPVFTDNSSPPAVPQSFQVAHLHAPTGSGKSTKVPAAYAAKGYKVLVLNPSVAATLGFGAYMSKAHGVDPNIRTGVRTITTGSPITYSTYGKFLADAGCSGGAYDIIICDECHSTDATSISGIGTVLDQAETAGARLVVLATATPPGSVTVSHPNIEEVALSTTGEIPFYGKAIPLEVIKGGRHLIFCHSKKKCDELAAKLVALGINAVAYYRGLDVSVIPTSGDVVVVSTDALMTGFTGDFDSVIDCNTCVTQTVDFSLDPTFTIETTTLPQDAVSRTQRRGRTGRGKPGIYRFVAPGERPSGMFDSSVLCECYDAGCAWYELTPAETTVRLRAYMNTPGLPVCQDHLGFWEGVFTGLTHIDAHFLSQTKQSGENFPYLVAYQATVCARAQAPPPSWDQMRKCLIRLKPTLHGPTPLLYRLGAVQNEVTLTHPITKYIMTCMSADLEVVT", "sequence (P27958 1658-1711 partner limits assumed)": "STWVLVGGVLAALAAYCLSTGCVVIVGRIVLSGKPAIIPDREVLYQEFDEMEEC", "details": "protease assay; reported in the literature; read-out: IC50 in in vitro Assays; cited from earlier work"}}, "note": "“Also recorded” adds a separate entry of the source. Read-outs that look alike come from different tables or passages of the source. Bridge positions count the residues as written; N and C are the ends. Square brackets hold non-standard residues; d marks the D form. Peptide text beside a SMILES is read from it. Cha = N[C@@H](CC1CCCCC1)C(=O)O; Ahx = NCCCCCC(=O)O", "data": [{"molecule": "CC(C)[C@@H]1NC(=O)[C@H](CCCNC(=N)N)NC(=O)[C@H](Cc2ccccc2)NC(=O)[C@H](CO)NC(=O)[C@@H](NC(=O)CCCCCNC(=O)CCCCCNC(=O)[C@H](CCCNC(=N)N)NC(=O)CCCCCNC(=O)[C@H](CCCNC(=N)N)NC(=O)CCCCCNC(=O)[C@H](CCCNC(=N)N)NC(=O)CCCCCNC(=O)[C@H](CCCNC(=N)N)NC(=O)CCCCCNC(=O)[C@H](CCCNC(=N)N)NC(=O)CCCCCNC(=O)[C@H](CCCNC(=N)N)NC(=O)CCCCCNC(=O)[C@@H](N)CCCNC(=N)N)CSSC[C@@H](C(N)=O)NC(=O)[C@@H]2CCCN2C(=O)[C@H](Cc2ccc(O)cc2)NC(=O)[C@H](CCC(=O)O)NC(=O)[C@H](Cc2c[nH]cn2)NC(=O)[C@H](CC2CCCCC2)NC(=O)[C@H]2CCCN2C1=O", "note": "[HCV4, Arg-(Ahx-Arg)6-Ahx-Ahx-Cys-Ser-Phe-Arg-Val-(D)Pro-Cha-His-Glu-Tyr-Pro-Cys] (H-R[Ahx]R[Ahx]R[Ahx]R[Ahx]R[Ahx]R[Ahx]R[Ahx][Ahx]CSFRV[dP][Cha]HEYPC-NH2; disulfide 16-27; N-terminus assumed)", "values": [{"measurement": "MTT toxicity", "setting": "Huh-7.5 cells; 10 μM", "result": "slight toxicity"}, {"measurement": "MTT toxicity", "setting": "Huh-7.5 cells; 100 μM", "result": "toxicity"}, {"measurement": "MTT toxicity", "setting": "Huh-7.5 cells; any concentration lower than 10 μM", "result": "no cytotoxicity"}, {"measurement": "effect of peptide treatment on NS5A-augmented IRES-mediated translation", "setting": "[1]", "result": "blocks"}, {"measurement": "IC50", "setting": "[2]; read-out: IC50 in Cell Culture, reporter virus", "result": 0.542, "unit": "nM"}, {"measurement": "IC50", "setting": "[2]; read-out: estimated IC50, intracellular viral protein production, Huh-7.5 cells treated with peptide 100 μM to 10 pM, immediately infected with HCV Renilla reporter virus, Renilla activity 24 hours post infection", "result": "~0.5", "unit": "nM"}]}, {"molecule": "R-(Ahx-R)6—CONH2 [arginine tag control peptide, reference compound]", "values": [{"measurement": "effect of peptide treatment on NS5A-augmented IRES-mediated translation", "setting": "[1]", "result": "fail to produce similar results"}, {"measurement": "effect on intracellular viral protein production", "setting": "[2]; peptide added to Huh-7.5 cells without transfection reagent, immediately infected with Renilla reporter virus, assayed 24 hours post infection", "result": "did not show any effect"}]}, {"molecule": "O=c1c(O)c(-c2ccc(O)c(O)c2)oc2cc(O)cc(O)c12", "note": "[Quercetin]", "values": [{"measurement": "effect on virus production", "setting": "HCV", "result": "blocked"}, {"measurement": "effect on NS5A-augmented IRES-mediated translation", "setting": "[3]", "result": "blocked"}]}, {"molecule": "CC[C@@H]1C[C@]1(NC(=O)[C@@H]1C[C@@H]2CN1C(=O)[C@H](C(C)(C)C)NC(=O)OCC(C)(C)CCCCc1cccc3c1CN(C3)C(=O)O2)C(=O)NS(=O)(=O)C1CC1", "note": "[MK-7009, Vaniprevir]", "values": [{"measurement": "IC50", "setting": "replicon", "result": "5 to 15", "unit": "nM"}]}, {"molecule": "Fc1ccccc1-c1nc2ccn(Cc3ccc(-c4ccc(C(F)(F)F)cc4C(F)(F)F)nn3)cc-2n1", "note": "[GS-9190, Tegobuvir]", "values": [{"measurement": "IC50", "setting": "polymerase", "result": "> 71000", "unit": "nM"}]}, {"molecule": "CC(C)C(=O)OC[C@H]1O[C@@H](n2ccc(N)nc2=O)[C@](C)(F)[C@@H]1OC(=O)C(C)C", "note": "[R7128 (PSI-6130)]", "values": [{"measurement": "IC50", "setting": "replicon", "result": 600, "unit": "nM"}]}, {"molecule": "CCc1cc(CC[C@]2(C3CCCC3)CC(O)=C(Cc3nc4nc(C)cc(C)n4n3)C(=O)O2)cc(CC)n1", "note": "[Filibuvir]", "values": [{"measurement": "IC50", "setting": "[4]", "result": 50, "unit": "nM"}]}, {"molecule": "CC(C)(C)OC(=O)N[C@H]1CCCCC/C=C\\[C@@H]2C[C@@]2(C(=O)NS(=O)(=O)C2CC2)NC(=O)[C@@H]2C[C@@H](OC(=O)N3Cc4cccc(F)c4C3)CN2C1=O", "note": "[ITMN-191, Da noprevir]", "values": [{"measurement": "IC50", "setting": "replicon", "result": 1.8, "unit": "nM"}]}, {"molecule": "C/C=C/C[C@@H](C)[C@@H](O)[C@H]1C(=O)N[C@@H](CC)C(=O)N(C)[C@H](SCCN(C)C)C(=O)N(C)[C@@H](CC(C)(C)O)C(=O)N[C@@H](C(C)C)C(=O)N(C)[C@@H](CC(C)C)C(=O)N[C@@H](C)C(=O)N[C@H](C)C(=O)N(C)[C@@H](CC(C)C)C(=O)N(C)[C@@H](CC(C)C)C(=O)N(C)[C@@H](C(C)C)C(=O)N1C", "note": "[SCY-635]", "values": [{"measurement": "IC50", "setting": "replicon", "result": 140, "unit": "nM"}]}, {"molecule": "COc1ccc2c(O[C@@H]3C[C@H]4C(=O)N[C@]5(C(=O)NS(=O)(=O)C6CC6)C[C@H]5/C=C\\CCCCN(C)C(=O)[C@@H]4C3)cc(-c3nc(C(C)C)cs3)nc2c1C", "note": "[TMC435]", "values": [{"measurement": "IC50", "setting": "protease", "result": 13, "unit": "nM"}]}, {"molecule": "C=C[C@@H]1C[C@]1(NC(=O)[C@@H]1C[C@@H](Oc2cc(-c3csc(NC(=O)C(C)C)n3)nc3c(Br)c(OC)ccc23)CN1C(=O)[C@@H](NC(=O)OC1CCCC1)C(C)(C)C)C(=O)O", "note": "[Bl 201335]", "values": [{"measurement": "IC50", "setting": "replicon", "result": "3.1 to 50", "unit": "nM"}]}, {"molecule": "LREEVSFRVGLHEYPVGSQLPCEP EPDVAVLTSM [C34]", "values": [{"measurement": "cell viability by MTT on peptide expression", "setting": "Huh-7.5 cells; expressed from construct, data not shown", "result": "no effect"}, {"measurement": "effect of expressed peptide on NS5A-augmented IRES-mediated translation", "setting": "[1]; 293T cells transfected with IRES reporter, NS5A or GFP, and peptide construct, 48 hours post transfection", "result": "block; also recorded: suppresses"}]}]}
